Source: paper PMC6150226, “Inhibition of Human Kallikrein 5 Protease by Triterpenoids from Natural Sources” (Molecules : A Journal of Synthetic Chemistry and Natural …, 2017)
Read-outs that look alike come from different tables or passages of the source.

Legend:
[1] = target: T1, recombinant human KLK5 (Homo sapiens, UniProt Q9Y337); test: KLK5 enzymatic assay (Boc-V-P-R-AMC fluorogenic substrate); type: biochemical
T1 construct: purchased R & D Systems Inc
T1 sequence (Q9Y337 23-293): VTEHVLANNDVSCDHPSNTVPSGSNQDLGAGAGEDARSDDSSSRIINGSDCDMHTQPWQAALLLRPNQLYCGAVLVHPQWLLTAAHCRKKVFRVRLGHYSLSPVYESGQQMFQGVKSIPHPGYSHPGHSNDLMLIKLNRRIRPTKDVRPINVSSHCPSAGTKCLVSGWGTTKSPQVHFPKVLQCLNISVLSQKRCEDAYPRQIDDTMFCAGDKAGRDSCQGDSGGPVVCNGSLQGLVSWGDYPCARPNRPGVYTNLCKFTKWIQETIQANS

[2] = system: LL-37 production in normal human epidermal keratinocytes (NHEKs); type: cell-based
[3] = system: recombinant human trypsin; test: Trypsin enzymatic assay (Boc-V-P-R-AMC); type: biochemical; details: for IC50: 0.78-100 μM, linear interpolation
Description: (§1) KLK5, KLK7, trypsin, and chymotrypsin C activities were evaluated according to the following methods supplied by R & D Systems Inc. (Minneapolis, MN, USA). The enzyme activity-dependent increase in the relative fluorescent unit (RFU) was measured, and the percentage of inhibition was calculated based on the formula: (1 − (A − B)/(C − B)) × 100, where A = RFU of test samples with enzymes, B = basal RFU without enzymes, and C = RFU of vehicle controls with enzymes.
To measure the trypsin activity, enzymatic reaction was performed at room temperature in 100 mM NaH2PO4 buffer (pH 8.0) containing 0.25 μg/mL recombinant human trypsin (Wako Pure Chemical Industries), 100 μM of Boc-V-P-R-AMC Fluorogenic Peptide Substrate, and 1.1% DMSO at final concentrations. […] was preincubated with test samples for 5 min, followed by the addition of peptide substrate. After incubating for 1 min, RFU was measured at Ex 380 nm/Em 460 nm. Leupeptin hemisulfate (42.1 μM) was used as a positive control.

[4] = target: T2, recombinant human pro-chymotrypsin C activated by trypsin (Chymotrypsin C) (Homo sapiens, UniProt Q99895); test: Chymotrypsin C enzymatic assay (Suc-A-A-P-F-AMC); type: biochemical; details: for IC50: 0.78-100 μM, linear interpolation
T2 construct: purchased R & D Systems Inc
Description: as §1, with “enzymes. […] Activated chymotrypsin C (final 34.7 nM) was preincubated with test samples for 5 min, followed by the addition of peptide substrate. After incubating for 60 min, RFU was measured at Ex 380 nm/Em 460 nm.” for “enzymes.”

[5] = system: NHEKs; test: Cell growth test (XTT-based cell viability assay); parameters: species or system human; details: ursolic acid 0.5 and 5 μM, tumulosic acid 1 and 10 μM; 24 h; with or without 10 μM cycloheximide
[6] = Plasma pharmacokinetics of triterpenoids in rats after oral Jumihaidokuto (LC-MS/MS); type: in vivo; details: rat; for Cmax: male, Sprague-Dawley, plasma
Description: Male Sprague–Dawley rats were purchased from Charles River Laboratories (Yokohama, Japan). The plasma pharmacokinetic study was performed according to the “Guidelines for the Care and Use of Laboratory Animals” of Tsumura & Co. Ethical approval for experimental procedures was obtained from the Laboratory Animal Committee of Tsumura & Co. Jumihaidokuto (JHT, Lot No. 332031900) was supplied by Tsumura & Co. (Tokyo, Japan) in the form of a powdered extract. JHT prepared in distilled water was orally administered to 16-h fasted rats at 2 g/10 mL/kg (n = 3). […] Plasma was obtained by centrifugation at 1700 g for 15 min at 4 °C and stored at −80 °C until further processing. […] Twenty-five microliters of methanol, an equal volume of atropine (2 ng/mL; Wako Pure Chemical Industries) as internal standard, and 750 µL of methanol were added to 200 µL of plasma samples, followed by mixing and centrifugation (7000× g, 5 min). For the preparation of the calibration curve, the same volumes of various concentrations of working solution were used instead of methanol. The supernatant was dried at 40 °C under a stream of nitrogen gas. The dried residue was dissolved in 50–60 μL of the initial mobile phase used for liquid chromatography–mass spectrometry with a tandem mass spectrometry system (LC-MS/MS; API4000 or Triple Quad 6500; AB Sciex, Tokyo, Japan) and then a 10- or 20-μL portion was injected into the LC-MS/MS system for the quantification of triterpenoids.

[7] = target: T3, recombinant human pro-KLK7 activated by thermolysin (Kallikrein 7) (Homo sapiens, UniProt P49862); test: KLK7 enzymatic assay (fluorogenic peptide substrate II); type: biochemical
T3 construct: purchased R & D Systems Inc

[8] = dose-response experiment of Figure 2, read-out: IC50 anti-KLK5 activity
[9] = 2 g/kg, single oral Jumihaidokuto 2 g/10 mL/kg
[10] = single oral Jumihaidokuto 2 g/10 mL/kg
[11] = 10 μM test compound, KLK5 8.1 nM, substrate 100 μM, mean ± SEM of triplicate, read-out: Anti-KLK5 Activity % Inhibition
[12] = 10 μM test compound, KLK5 8.1 nM, substrate 100 μM, mean ± SEM of triplicate

T2 sequence (Q99895 30-268, other chains not shown): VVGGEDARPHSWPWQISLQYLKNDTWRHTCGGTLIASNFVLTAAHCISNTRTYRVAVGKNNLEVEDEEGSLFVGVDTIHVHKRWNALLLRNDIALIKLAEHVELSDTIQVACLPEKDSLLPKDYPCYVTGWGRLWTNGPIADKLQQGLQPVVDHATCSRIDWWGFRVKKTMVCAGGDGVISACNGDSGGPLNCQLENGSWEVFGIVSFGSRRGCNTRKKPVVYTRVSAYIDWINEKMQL
T3 sequence (P49862 30-253): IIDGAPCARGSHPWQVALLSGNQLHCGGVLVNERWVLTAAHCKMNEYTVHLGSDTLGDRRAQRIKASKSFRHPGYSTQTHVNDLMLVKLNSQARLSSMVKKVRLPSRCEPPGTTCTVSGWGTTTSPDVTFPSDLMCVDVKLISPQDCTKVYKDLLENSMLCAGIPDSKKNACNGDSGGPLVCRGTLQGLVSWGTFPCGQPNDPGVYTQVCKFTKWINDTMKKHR

Compound: CC1(C)CC[C@]2(C(=O)O)CC[C@]3(C)C(=CC[C@@H]4[C@@]5(C)CC[C@H](O)C(C)(C)[C@@H]5CC[C@]43C)[C@@H]2C1 [Oleanolic acid]
- IC50 [1, 8]: 6.4 µM

Compound: C=C(CC[C@@H](C(=O)O)[C@H]1[C@H](O)C[C@@]2(C)C3=C(CC[C@]12C)[C@@]1(C)CC[C@H](O)C(C)(C)[C@@H]1CC3)C(C)C [Tumulosic acid]
- amount of LL-37 in NHEK lysates [2]: decreased
- Inhibition % at 100 μM, Trypsin [3]: 73.2 ± 1.6%
- IC50 ([3]; listed as Tumulosic Acid): 45.3 µM
- IC50 ([3]; listed as tumulosic acid): 10.5 µM
- Inhibition % at 100 μM, Chymotrypsin C ([4]; 100 μM): 4.1 ± 5.2%
- inhibition at 100 µM ([4]; 100 μM): 4%
- IC50 [4]: > 100 µM
- cytotoxic effect on cell proliferation [5]: No cytotoxic effect
- Cmax [6, 9]: 116 ng/mL
- Cmax ([6]; single oral Jumihaidokuto 2 g/kg, converted from 116.1 ng/mL): 238 nM
- time of Cmax [6, 10]: 2 h
- inhibition at 100 µM [7]: 19.5 ± 1.5%
- IC50 ([7]; 0.78-100 μM, linear interpolation): > 100 µM
- inhibition at 10 µM [1, 11]: 36 ± 1.9%
- inhibition at 100 µM ([1]; 100 μM, read-out: Inhibition % at 100 μM, Kallikrein 5): 58.7 ± 0.2%
- IC50 [1, 8]: 19.3 µM
- IC50 ([1]; selectivity experiment of Table 2, 0.78-100 μM, linear interpolation, read-out: IC50 Kallikrein 5): 14.8 µM

Compound: C=C(CC[C@@H](C(=O)O)C1[C@H](O)C[C@@]2(C)C3=CCC4C(C)(CCC(OC(C)=O)C4(C)C)C3=CCC12C)C(C)C (stereo partly drawn) [Dehydropachymic acid]
- inhibition at 10 µM [1, 11]: 33.9 ± 3.7%

Compound: CC(=O)N[C@@H](CC(C)C)C(=O)N[C@@H](CC(C)C)C(=O)N[C@H](C=O)CCCN=C(N)N.CC(=O)N[C@@H](CC(C)C)C(=O)N[C@@H](CC(C)C)C(=O)N[C@H](C=O)CCCN=C(N)N.O=S(=O)(O)O [Leupeptin hemisulfate, reference compound]
- Anti-KLK5 Activity % Inhibition ([1]; 42.1 μM (positive control), KLK5 8.1 nM, mean ± SEM of triplicate): 96.9 ± 0.1%
- Anti-KLK5 Activity % Inhibition ([1]; 42.1 μM (positive control), KLK5 8.1 nM, mean ± SEM of triplicate, listed as leupeptin hemisulfate): completely inhibited

Compound: C[C@@H]1C[C@H]2[C@@H]3CCC4=CC(=O)C=C[C@]4(C)[C@@]3(F)[C@@H](O)C[C@]2(C)[C@@]1(O)C(=O)CO [Dexamethasone, reference compound]
- Anti-KLK5 Activity % Inhibition [1, 12]: did not influence the KLK5 activity
- inhibition at 10 µM [1, 11]: -1.8 ± 2.8%

Compound: C[C@H]1O[C@@H](O[C@H]2CC[C@@]3(C)[C@@H](CC[C@]4(C)[C@@H]3C=C[C@]35OC[C@@]6(CCC(C)(C)C[C@H]63)[C@@H](O)C[C@]54C)[C@]2(C)CO)[C@H](O)[C@@H](O[C@@H]2O[C@H](CO)[C@@H](O)[C@H](O)[C@H]2O)[C@H]1O [Saikosaponin a]
- inhibition at 10 µM [1, 11]: 4.3 ± 0.7%

Compound: CC1(C)CCC2(CO)C(=C3C=CC4C5(C)CCC(O)C(C)(CO)C5CCC4(C)C3(C)CC2O)C1 (stereo not drawn) [Saikogenin D]
- Anti-KLK5 Activity % Inhibition [1, 12]: −1.5 ± 3.6%

Compound: CC1(C)CCC2(C(=O)O)C(C1)C1=CCC3C4(C)CC(O)C(O)C(CO)(CO)C4CCC3(C)[C@]1(C)C[C@H]2O (stereo partly drawn) [Platycodigenin]
- inhibition at 10 µM [1, 11]: 8.8 ± 2%

Compound: C=C(CC[C@@H](C(=O)O)[C@H]1[C@H](O)C[C@@]2(C)C3=CC[C@H]4C(C)(C)[C@@H](O)CC[C@]4(C)C3=CC[C@]12C)C(C)C [Dehydrotumulosic acid]
- inhibition at 10 µM [1, 11]: -46.2 ± 2.7%

Compound: C[C@H]1[C@H](C)CC[C@]2(C(=O)O)CC[C@]3(C)C(=CC[C@@H]4[C@@]5(C)CC[C@H](O)C(C)(C)[C@@H]5CC[C@]43C)[C@H]12 [Ursolic acid]
- amount of LL-37 in NHEK lysates ([2]; ursolic acid 0.5 and 5 μM, tumulosic acid 1 and 10 μM, 23 h, in the presence of 10 μM cycloheximide): decreased
- Inhibition % at 100 μM, Trypsin [3]: 76.9 ± 3.5%
- IC50 ([3]; listed as Ursolic Acid): 14.8 µM
- IC50 ([3]; listed as ursolic acid): 10.5 µM
- inhibition at 100 µM ([4]; 100 μM): 35.3 ± 2.9%
- IC50 [4]: > 100 µM
- inhibition at 10 µM ([1]; read-out: Anti-KLK5 Activity % Inhibition): 54.6 ± 1.3%

Compound: CC1OC(OC2CCC3(C)C(CCC4(C)C3C=CC3=C5CC(C)(C)CCC5(CO)C(O)CC34C)C2(C)CO)C(O)C(OC2OC(CO)C(O)C(O)C2O)C1O (stereo not drawn) [Saikosaponin b2]
- Anti-KLK5 Activity % Inhibition [1, 12]: 21.1 ± 1.4%

Compound: C[C@H]1O[C@@H](O[C@H]2CC[C@@]3(C)[C@@H](CC[C@]4(C)[C@@H]3C=CC3=C5CC(C)(C)CC[C@]5(CO)[C@@H](O)C[C@]34C)[C@]2(C)CO)[C@H](O)[C@@H](O[C@@H]2O[C@H](CO)[C@@H](O)[C@H](O)[C@H]2O)[C@H]1O [Saikosaponin b1]
- inhibition at 10 µM [1, 11]: 39.6 ± 1.6%
- IC50 [1, 8]: 14.4 µM

Compound: C=C(CC[C@@H](C(=O)O)[C@H]1CC[C@@]2(C)C3=C(CC[C@]12C)[C@@]1(C)CC[C@H](O)C(C)(C)[C@@H]1CC3)C(C)C [Eburicoic acid]
- inhibition at 10 µM [1, 11]: -51 ± 3%

Compound: CC1OC(OC2C(COC3OC(CO)C(O)C(O)C3O)OC(OC3CCC4(C)C(CCC5(C)C4C=CC46OCC7(CCC(C)(C)CC74)[C@@H](O)C[C@@]56C)C3(C)C)C(O)C2O)C(O)C(O)C1O (stereo partly drawn) [Saikosaponin c]
- inhibition at 10 µM [1, 11]: 4.1 ± 1.6%

Compound: CC1(C)CCC2(C(=O)O)C(O)CC3(C)C(=CCC4C5(C)CC(O)C(O)C(C)(CO)C5CCC43C)C2C1 (stereo not drawn) [Polygalacic acid]
- Anti-KLK5 Activity % Inhibition [1, 12]: did not influence the KLK5 activity
- inhibition at 10 µM [1, 11]: 5.5 ± 2.3%

Compound: C=C(C)[C@@H]1CC[C@]2(C(=O)O)CC[C@]3(C)[C@H](CC[C@@H]4[C@@]5(C)CC[C@H](O)C(C)(C)[C@@H]5CC[C@]43C)[C@@H]12 [Betulinic acid]
- Anti-KLK5 Activity % Inhibition [1, 12]: did not influence the KLK5 activity
- inhibition at 10 µM [1, 11]: 5.5 ± 2.5%

Compound: CC1(C(=O)O)CCC2(C)CCC3(C)C(=CC(=O)C4C5(C)CCC(O)C(C)(C)C5CCC43C)C2C1 (stereo not drawn) [18β-Glycyrrhetinic acid]
- inhibition at 30 µM ([1]; 30 μM, KLK5 8.1 nM, substrate 100 μM, mean ± SEM of triplicate, read-out: Anti-KLK5 Activity % Inhibition): 16 ± 1.2%

Compound: CC1OC(OC2CCC3(C)C(CCC4(C)C3C=CC35OCC6(CCC(C)(C)CC63)C(O)CC45C)C2(C)CO)C(O)C(OC2OC(CO)C(O)C(O)C2O)C1O (stereo not drawn) [Saikosaponin d]
- inhibition at 10 µM [1, 11]: -10.4 ± 3.5%

Compound: C=C(CC[C@@H](C(=O)O)[C@H]1[C@H](O)C[C@@]2(C)C3=C(CC[C@]12C)[C@@]1(C)CC[C@H](OC(C)=O)C(C)(C)[C@@H]1CC3)C(C)C [Pachymic acid]
- Cmax [6, 9]: 2.1 ng/mL
- time of Cmax [6, 10]: 6 h
- inhibition at 10 µM [1, 11]: 56.2 ± 1.5%
- IC50 [1, 8]: 5.9 µM

Compound: CC1(C)CCC2(CO)C(=C3C=CC4C5(C)CCC(O)C(C)(CO)C5CCC4(C)C3(C)CC2O)C1 (stereo not drawn) [Saikogenin A]
- Anti-KLK5 Activity % Inhibition [1, 12]: 24.3 ± 2.6%

Compound: C[C@@H]1O[C@@H](O[C@H]2[C@H](OC(=O)[C@]34CCC(C)(C)C[C@H]3C3=CC[C@@H]5[C@@]6(C)C[C@H](O)[C@H](O[C@@H]7O[C@H](CO)[C@@H](O)[C@H](O)[C@H]7O)C(CO)(CO)[C@@H]6CC[C@@]5(C)[C@]3(C)C[C@H]4O)OC[C@H](O)[C@@H]2O)[C@H](O)[C@H](O)[C@H]1O[C@@H]1OC[C@@H](O)[C@H](O[C@@H]2OC[C@](O)(CO)[C@H]2O)[C@H]1O [Platycodin D]
- inhibition at 10 µM [1, 11]: -6 ± 2.9%
